Here are results for 1 compound from patent publication US20230391727A1, “ANALOGUES OF PENTAMIDINE AND METHODS FOR TREATING INFECTIONS” (Auransa Inc., priority 2020, published 2023).

As usually defined, the MIC is the smallest concentration in the dilution series that meets the test's criterion for growth inhibition.

What all share (test): Checkerboard/MIC assay with rifampicin
Common to all, as to format: cell-based

For assay [1], the system named is Pseudomonas aeruginosa (BCCM 27647). To be noted: substance alone; Pseudomonas aeruginosa BCCM27647. An excerpt:
(§1) The 17 test strains/isolates were: (1) Serratia marcescens (ATCC 13880); (2) Salmonella typhimurium (ATCC 13311); (3) Salmonella choleraesuis (ATCC 10708); (4) Acinetobacter baumannii (ATCC BAA-1605); (5) A. baumannii (ATCC 17978); (6) A. baumannii (FDA-CDC AR-BANK#0088); (7) Citrobacter freundii (ATCC 8090); (8) Pseudomonas aeruginosa (BCCM 27647); (9) P. aeruginosa (BCCM 27648); (10) Escherichia coli (ATCC 25922); (11) E. coli (ATCC 10536); (12) Stenotrophomonas maltophilia (ATCC 13637); (13) Enterobacter cloacae (ATCC BAA-1143); (14) E. cloacae (ATCC 13047); (15) E. aerogenes (ATCC 13048); (16) Klebsiella pneumoniae (NCTC 13438); and (17) Klebsiella pneumoniae (FDA-CDC AR-BANK#0160). These bacterial strains were obtained from the American Type Culture Collection (ATCC, Rockville, MD, USA); Belgian Coordinated Collections of Microorganisms; The Culture Collections of Public Health England, UK; and FDA-CDC anticimrobial Resistance Isolate Bank, USA, and cryopreserved as single-use frozen working stock cultures which were stored at −80° C.
(§2) The 17 test strains were grown on nutrient agar or tryptic soy agar (TSA) medium as below. Colonies were suspended in phosphate buffered saline (PBS) pH 7.4. The absorbance of the bacterial suspension was measured with a spectrophotometer at OD620nm, and then the suspension was adjusted to 1-2×10^8 CFU/mL in PBS. The adjusted suspension was further diluted 1:500 in cation-adjusted Mueller-Hinton Broth. Each well contained approximately 5×10^5 CFU/mL. […] The testing inoculum was prepared within minutes before adding to wells of the test plate.
(§3) Compound 3 was tested in 8 points by two-fold serial titrations from 100 to 0.78 μg/mL. […] Assay plates were incubated and MIC endpoints were read as complete inhibition of visual growth. The checkerboard combination analysis was performed following the MIC testing protocol to identify potential synergistic, indifferent or antagonistic interactions. The analysis also included each test substance alone at the same concentration ranges.
(§4) FIC (Fraction Inhibitory Concentration) and FIC Index (FICI) values for each test condition and the average of FICI values of all pairwise combinations were calculated to determine if synergy or antagonism existed between the two substances. The FIC index was determined by calculating the sum of the ratios of MICs (minimum inhibitory concentrations) for both substances. […] Synergy is defined as the FICI (Σ)≤0.5; additivity or indifference are defined as the FICI (Σ)>0.5 to ≤4; antagonism is defined as the FICI (Σ)>4. The two fold of highest test article concentration was used for FIC value calculations in the circumstances where MIC values were greater than the highest test article concentration.

In assay [2] the test system is Stenotrophomonas maltophilia (ATCC 13637). The note with it: ATCC13637, substance alone.
Source text: as §1, §2, §3, §4

The test system of assay [3] is A. baumannii (ATCC 17978). To be noted: ATCC17978; substance alone; Acinetobacter baumannii ATCC 17978.
Source text: as §1, §2, §3, §4

Assay [4] has as its system Enterobacter cloacae (ATCC BAA-1143). The note with it: substance alone; Enterobacter cloacae BAA-1143.
Source text: as §1, §2, §3, §4

The test system of assay [5] is Klebsiella pneumoniae (NCTC 13438). To be noted: NCTC13438, substance alone.
Source text: as §1, §2, §3, §4

The subject of assay [6] is Klebsiella pneumoniae (FDA-CDC AR-BANK#0160). The note with it: substance alone; Klebsiella pneumoniae AR-BANK#0160.
Source text: as §1, §2, §3, §4

The subject of assay [7] is P. aeruginosa (BCCM 27648). To be noted: substance alone; Pseudomonas aeruginosa BCCM27648.
Source text: as §1, §2, §3, §4

The test system of assay [8] is Serratia marcescens (ATCC 13880). The note with it: ATCC13880, substance alone.
Source text: as §1, §2, §3, §4

Assay [9] deals with Acinetobacter baumannii (ATCC BAA-1605). The note with it: substance alone; Acinetobacter baumannii BAA-1605.
Source text: as §1, §2, §3, §4

The next assay relates to E. coli (ATCC 10536). To be noted: ATCC10536; substance alone; Escherichia coli ATCC 10536.
Source text: as §1, §2, §3, §4

Assay [10] has as its system Citrobacter freundii (ATCC 8090). To be noted: ATCC8090, substance alone.
Source text: as §1, §2, §3, §4

The subject of assay [11] is Salmonella typhimurium (ATCC 13311). To be noted: Salmonella enterica; substance alone; Salmonella typhimurium ATCC13311.
Source text: as §1, §2, §3, §4

In assay [12] the test system is Salmonella choleraesuis (ATCC 10708). To be noted: Salmonella enterica.
Source text: as §1, §2, §3, §4

Assay [13] deals with A. baumannii (FDA-CDC AR-BANK#0088). The note with it: substance alone; Acinetobacter baumannii AR-BANK 0088.
Source text: as §1, §2, §3, §4

Assay [14] deals with E. aerogenes (ATCC 13048). To be noted: Klebsiella aerogenes, ATCC13048; substance alone; Enterobacter aerogenes ATCC-13048.
Source text: as §1, §2, §3, §4

The test system of another assay is E. cloacae (ATCC 13047). The note with it: ATCC13047; substance alone; Enterobacter cloacae ATCC-13047.
Source text: as §1, §2, §3, §4

In assay [15] the test system is Escherichia coli (ATCC 25922). To be noted: ATCC25922, substance alone.
Source text: as §1, §2, §3, §4

`CO[C@H]1/C=C/O[C@@]2(C)Oc3c(C)c(O)c4c(O)c(c(/C=N/N5CCN(C)CC5)c(O)c4c3C2=O)NC(=O)/C(C)=C\C=C\[C@H](C)[C@H](O)[C@@H](C)[C@@H](O)[C@@H](C)[C@H](OC(C)=O)[C@@H]1C` [Rifampicin, reference compound]: the MIC in assay [1] is greater than 12.5 µg/mL; in assay [2], 6.25 µg/mL; in [3], 6.25 µg/mL; in [4], greater than 12.5 µg/mL; in assay [5] it was greater than 12.5 µg/mL; in assay [6], greater than 12.5 µg/mL. For the same compound, the MIC in [7] was greater than 12.5 µg/mL; in assay [8], greater than 12.5 µg/mL; in [9], 3.12 µg/mL; with E. coli (ATCC 10536) it was 3.12 µg/mL; in assay [10], greater than 12.5 µg/mL; in assay [11], greater than 12.5 µg/mL. The MIC is 12.5 µg/mL in assay [12]; 3.12 µg/mL in [13]; greater than 12.5 µg/mL in [14]; greater than 12.5 µg/mL with E. cloacae (ATCC 13047); 6.25 µg/mL in [15].
